From patent publication US20260250290A1 (BRISTOL-MYERS SQUIBB COMPANY, priority 2023, published 2026)
Counter-ions that a name gives are not always drawn.

Molecular target: T1, SGK1 (Homo sapiens, UniProt O00141)
T1 sequence (O00141 1-431): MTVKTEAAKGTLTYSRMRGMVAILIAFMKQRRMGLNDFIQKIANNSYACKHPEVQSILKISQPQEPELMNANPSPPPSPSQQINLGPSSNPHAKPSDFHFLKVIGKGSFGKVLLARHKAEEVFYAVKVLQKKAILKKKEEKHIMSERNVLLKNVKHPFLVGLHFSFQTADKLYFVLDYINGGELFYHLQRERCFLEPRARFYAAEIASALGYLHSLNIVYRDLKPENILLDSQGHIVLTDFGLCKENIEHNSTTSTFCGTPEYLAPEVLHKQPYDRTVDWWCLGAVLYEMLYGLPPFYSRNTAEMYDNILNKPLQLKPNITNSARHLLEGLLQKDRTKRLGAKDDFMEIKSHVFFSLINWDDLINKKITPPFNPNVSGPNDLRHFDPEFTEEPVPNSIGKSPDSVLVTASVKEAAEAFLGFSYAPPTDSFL
Assay: SGK1 inhibition Assay B (Echo mass spectrometry of phosphorylated peptide product)
Format: biochemical
Conditions: 60 min at room temperature

IC50	SMILES
1.7 nM	COc1nc(-c2cc(N3CCC[C@@H](NC(=O)c4sc(C)nc4O[C@H]4CC[C@@H](N(C)C)CC4)C3)c3c(N)ncnn23)ccc1C(N)=O [Example 1057, N—((R)-1-(4-amino-7-(5-carbamoyl-6-methoxypyridin-2-yl)pyrrolo[2,1-f][1,2,4]triazin-5-yl)piperidin-3-yl)-4-(((1S,4S)-4 (dimethylamino)cyclohexyl)oxy)-2-methylthiazole5-carboxamide]
0.8 nM	Cc1cc(O[C@@H]2C[C@H]3CC[C@@H](C2)N3C)c(C(=O)N[C@@H]2CCCN(c3cc(-c4ccc(-n5cc(CCC#N)nn5)c(F)c4)n4ncnc(N)c34)C2)s1 [Example 933, N—((R)-1-(4-Amino-7-(4-(4-(2-cyanoethyl)-1H-1,2,3-triazol-1-yl)-3-fluorophenyl)pyrrolo[2,1-f][1,2,4]triazin-5-yl)piperidin-3-yl)-5-methyl-3-(((1R,3s,5S)-8-methyl-8-azabicyclo[3.2.1]octan-3-yl)oxy)thiophene-2-carboxamide]
56 nM	CC(=O)N1CC=C(c2cc(N3CCC[C@@H](NC(=O)[C@]45CCC[C@H]4C5)C3)c3c(N)ncnn23)C1 (mixture of isomers) [Example 916, (cis)-N-[(3R)-1-[7-(1-acetyl-2,5-dihydro-1H-pyrrol-3-yl)-4-aminopyrrolo[2,1-f][1,2,4]triazin-5-yl]piperidin-3-yl]bicyclo[3.1.0]hexane-1-carboxamide]
2 nM	CC(C)N1CC2CC(Oc3cc(Cl)sc3C(=O)N[C@@H]3CCCN(c4cc(-c5ccc(-n6cnnn6)nc5)n5ncnc(N)c45)C3)CC2C1 (stereo partly drawn) [Example 959, N—((R)-1-(7-(6-(1H-tetrazol-1-yl)pyridin-3-yl)-4-aminopyrrolo[2,1-f][1,2,4]triazin-5-yl)piperidin-3-yl)-5-chloro-3-(((3aR,6aS)-2-isopropyloctahydrocyclopenta[c]pyrrol-5-yl)oxy) thiophene-2-carboxamide]
3 nM	Cc1nc(O[C@H]2CC[C@@H](NCC(C)(C)O)CC2)c(C(=O)N[C@@H]2CCCN(c3cc(-c4ccc(C(N)=O)c(F)c4)n4ncnc(N)c34)C2)s1 [Example 978, N—((R)-1-(4-Amino-7-(4-carbamoyl-3-fluorophenyl)pyrrolo[2,1-f][1,2,4]triazin-5-yl)piperidin-3-yl)-4-(((1s,4S)-4-((2-hydroxy-2-methylpropyl)amino)cyclohexyl)oxy)-2-methylthiazole-5-carboxamide]
16 nM	Cc1cc(-c2cc(N3CCC[C@@H](NC(=O)c4sc(C)nc4O[C@H]4CC[C@@H](N(C)C)CC4)C3)c3c(N)ncnn23)cnn1 [Example 1046]
4 nM	CN1CCN(c2nccc(C(=O)N[C@@H]3CCCN(c4cc(-c5cnc(-n6cnnn6)c(F)c5)n5ncnc(N)c45)C3)n2)CC1 [Example 858]
0.4 nM	CN1[C@@H]2CC[C@H]1C[C@H](Oc1cc(Cl)sc1C(=O)N[C@@H]1C[C@@H](F)CN(c3cc(-c4ccc(-n5cnnn5)c(F)c4)n4ncnc(N)c34)C1)C2 [Example 925, N-((3R,5R)-1-(4-amino-7-(3-fluoro-4-(1H-tetrazol-1-yl)phenyl)pyrrolo[2,1-f][1,2,4]triazin-5-yl)-5-fluoropiperidin-3-yl)-5-chloro-3-(((1R,3s,5S)-8-methyl-8-azabicyclo[3.2.1]octan-3-yl)oxy)thiophene-2-carboxamide, TFA salt]
3 nM	CC(C)c1nc(O[C@@H]2C[C@H]3CC[C@@H](C2)N3C)c(C(=O)N[C@@H]2CCCN(c3cc(-c4ccc(=O)n(CC(F)F)c4)n4ncnc(N)c34)C2)s1 [Example 951, N—((R)-1-(4-Amino-7-(1-(2,2-difluoroethyl)-6-oxo-1,6-dihydropyridin-3-yl)pyrrolo[2,1-f][1,2,4]triazin-5-yl)piperidin-3-yl)-2-isopropyl-4-(((1R,3s,5S)-8-methyl-8-azabicyclo[3.2.1]octan-3-yl)oxy)thiazole-5-carboxamide]
3.1 nM	Cc1nc(OC2CCC(N3CC(O)C3)CC2)c(C(=O)N[C@@H]2CCCN(c3cc(C#N)n4ncnc(N)c34)C2)s1 (stereo partly drawn) [Example 1048, (R)—N-(1-(4-amino-7-cyanopyrrolo[2,1-f][1,2,4]triazin-5-yl)piperidin-3-yl)-4-((4-(3-hydroxyazetidin-1-yl)cyclohexyl)oxy)-2-methylthiazole-5-carboxamide]
80 nM	CC(=O)c1ccc(-c2cc(N3CCC[C@@H](NC(=O)c4cccc(N5CCN(C)CC5)n4)C3)c3c(N)ncnn23)cn1 [Example 809, (R)-N-(1-(7-(6-acetylpyridin-3-yl)-4-aminopyrrolo[2,1-f][1,2,4]triazin-5-yl)piperidin-3-yl)-6-(4-methylpiperazin-1-yl)picolinamide]
1.7 nM	COc1nccc(-c2cc(N3CCC[C@@H](NC(=O)c4sc(C)nc4O[C@H]4CC[C@@H](N(C)C)CC4)C3)c3c(N)ncnn23)n1 [Example 1028, N—((R)-1-(4-amino-7-(2-methoxypyrimidin-4-yl)pyrrolo[2,1-f][1,2,4]triazin-5-yl)piperidin-3-yl)-4-(((1S,4S)-4-(dimethylamino)cyclohexyl)oxy)-2-methylthiazole-5-carboxamide]
0.1 nM	CN1[C@@H]2CC[C@H]1C[C@H](Oc1cc(Cl)sc1C(=O)N[C@@H]1CCCN(c3cc(C4=CC(=O)OC4)n4ncnc(N)c34)C1)C2 [Example 927, N—((R)-1-(4-amino-7-(5-oxo-2,5-dihydrofuran-3-yl)pyrrolo[2,1-f][1,2,4]triazin-5-yl)piperidin-3-yl)-5-chloro-3-(((1R,3s,5S)-8-methyl-8-azabicyclo[3.2.1]octan-3-yl)oxy)thiophene-2-carboxamide, TFA salt]
1.1 nM	COC[C@@H](C)NC1CCC(Oc2nc(C)sc2C(=O)N[C@@H]2CCCN(c3cc(C4=CC(=O)OC4)n4ncnc(N)c34)C2)CC1 (stereo partly drawn) [Example 996, N—((R)-1-(4-amino-7-(5-oxo-2,5-dihydrofuran-3-yl)pyrrolo[2,1-f][1,2,4]triazin-5-yl)piperidin-3-yl)-4-((4-(((R)-1-methoxypropan-2-yl)amino)cyclohexyl)oxy)-2-methylthiazole-5-carboxamide]
12 nM	CC(=O)N1CC=C(c2cc(N3CCC[C@@H](NC(=O)c4sc(C#N)cc4O[C@@H]4C[C@H]5CC[C@@H](C4)N5C)C3)c3c(N)ncnn23)C1 [Example 753]
2.2 nM	CCNC1CCC(Oc2nc(C)sc2C(=O)N[C@@H]2CCCN(c3cc(C4=C(C)C(=O)OC4)n4ncnc(N)c34)C2)CC1 (stereo partly drawn) [Example 1011, (R)—N-(1-(4-amino-7-(4-methyl-5-oxo-2,5-dihydrofuran-3-yl)pyrrolo[2,1-f][1,2,4]triazin-5-yl)piperidin-3-yl)-4-((4-(ethylamino)cyclohexyl)oxy)-2-methylthiazole-5-carboxamide]

SMILES	IC50
CC(C)N1CC2(CN(c3cccc(C(=O)N[C@@H]4CCCN(c5cc(-c6ccc(-n7cnnn7)c(F)c6F)n6ncnc(N)c56)C4)n3)C2)C1 [Example 823, (R)-N-(1-(4-amino-7-(2,3-difluoro-4-(1H-tetrazol-1-yl)phenyl)pyrrolo[2,1-f][1,2,4]triazin-5-yl)piperidin-3-yl)-6-(6-isopropyl-2,6-diazaspiro[3.3]heptan-2-yl)picolinamide]	18 nM
Cc1cc(-c2cc(N3CCC[C@@H](NC(=O)c4ccnc(N5CCN(C)CC5)n4)C3)c3c(N)ncnn23)ccc1-n1cnnn1 [Example 850, (R)-N-(1-(4-amino-7-(3-methyl-4-(1H-tetrazol-1-yl)phenyl)pyrrolo[2,1-f][1,2,4]triazin-5-yl)piperidin-3-yl)-2-(4-methylpiperazin-1-yl)pyrimidine-4-carboxamide]	10 nM
